For 23 compounds, IC50 and EC50 results are on record in patent US20230146395A1, “Substituted Pyrimidines and Uses Thereof” (Verge Analytics, Inc., priority 2020, published 2023).

In assay [1] the target is T1, Full length human recombinant PIKFYVE (Homo sapiens, UniProt Q9Y2I7).
T1 construct: Full length human recombinant PIKFYVE; purchased Carna Biosciences (Kobe, Japan); host or cells: baculovirus expression system
Put plainly: Inhibition of PIKfyve (microfluidic electrophoresis kinase assay, PI3P/PS substrate). Type of assay: biochemical. Particulars: 12 concentrations. An outline of the steps: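 Percent inhibition, from 12 concentrations, was derived from the product/(substrate+product) peak ratio separated by microfluidic electrophoresis, normalized to DMSO-only and enzyme-free controls. Reactions ran 3 h at room temperature: 2 nM N-terminal GST-PIKFYVE, 1 μM fluorescent PI3P in PS vesicles, […], HEPES pH 7.5, MgCl2/MnCl2.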

Assay [2] concerns HEK 293T transfected with plasmids containing TDP-43 Q331K mutation. Put plainly: HEK/TDP Survival assay (Cell-Titer-Glo, 48 hrs, maximal effect of rescue). The assay is classed as cell-based. To be noted: Homo sapiens, HEK 293T with TDP-43 Q331K, (n) in brackets. How it is done: HEK/TDP Survival assay: Immortalized human embryonic kidney 293T (HEK 293T) were transfected with plasmids containing TDP-43 Q331K mutation, resulting in an increase in cell death that is biologically relevant to ALS patients. Cell death is measured as reductions in the amount of ATP, an indicator of metabolically active cells, that is quantified by a luminescence Cell-Titer-Glo® (CTG) reagent. Compounds are evaluated in this model for changes in CTG compared to a no treatment group. Increased signal indicates improved survival (rescue) and decreased signal indicates decreased survival.
Cell rescue was measured in a 96-well format with eight different concentrations of the test compound over 48 hours (hrs) with 6 replicates. The Promega Cell-Titer-Glo® Luminescent Cell Viability Assay was used to quantify ATP, an indicator of metabolically active cells (see protocol: https://www.promega.com/-/media/files/resources/protocols/technical-manuals/101/celltiterglo-2-0-assay-protocol.pdf?la=en). The luminescence signal was detected using the PerkinElmer EnVision or Molecular Devices SpectraMax.
The effect of a compound at a given dose on cell viability was determined using a three step procedure. First, Hedge's g for the Cell Titer-Glo luminescence values using six untreated wells on every plate as a control was calculated. […] Finally, values from all compound-dose pairs were corrected for multiple hypothesis testing using the Empirical Bayes framework of Stephens, M. (False discovery rates: a new deal, Biostatistics, 18 [2], 2017, 275-294) yielding credible intervals for the measured effect and associated s values.
Briefly, this method computes a local false sign rate for each experiment. Analogous to the local false discovery rate of Efron, B. (Size, power and false discovery rates, Ann. Statist. 35 [4], 2007, 1351-1377) this value measures the confidence in the sign of each effect (rather than confidence in each effect being non-zero). The s values reported in the previous figures are the expected fraction of errors if estimating the sign of all effects with greater absolute local false sign rate, defined in analogy to the q value of Storey, JD (The positive false discovery rate: a Bayesian interpretation and the q-value, Ann. Statist. 31 [6] 2003, 2013-2035).
Drugs that yielded signed log s values greater than 3 were considered hits. This threshold was determined by a separate calibration experiment in which Cell Titer-Glo® was measured in blank plates consisting of untreated cells to assess the noise inherent in the assay. Data are presented as the maximal effect of rescue obtained from the dose-response curve.

T1 sequence (Q9Y2I7 whole entry): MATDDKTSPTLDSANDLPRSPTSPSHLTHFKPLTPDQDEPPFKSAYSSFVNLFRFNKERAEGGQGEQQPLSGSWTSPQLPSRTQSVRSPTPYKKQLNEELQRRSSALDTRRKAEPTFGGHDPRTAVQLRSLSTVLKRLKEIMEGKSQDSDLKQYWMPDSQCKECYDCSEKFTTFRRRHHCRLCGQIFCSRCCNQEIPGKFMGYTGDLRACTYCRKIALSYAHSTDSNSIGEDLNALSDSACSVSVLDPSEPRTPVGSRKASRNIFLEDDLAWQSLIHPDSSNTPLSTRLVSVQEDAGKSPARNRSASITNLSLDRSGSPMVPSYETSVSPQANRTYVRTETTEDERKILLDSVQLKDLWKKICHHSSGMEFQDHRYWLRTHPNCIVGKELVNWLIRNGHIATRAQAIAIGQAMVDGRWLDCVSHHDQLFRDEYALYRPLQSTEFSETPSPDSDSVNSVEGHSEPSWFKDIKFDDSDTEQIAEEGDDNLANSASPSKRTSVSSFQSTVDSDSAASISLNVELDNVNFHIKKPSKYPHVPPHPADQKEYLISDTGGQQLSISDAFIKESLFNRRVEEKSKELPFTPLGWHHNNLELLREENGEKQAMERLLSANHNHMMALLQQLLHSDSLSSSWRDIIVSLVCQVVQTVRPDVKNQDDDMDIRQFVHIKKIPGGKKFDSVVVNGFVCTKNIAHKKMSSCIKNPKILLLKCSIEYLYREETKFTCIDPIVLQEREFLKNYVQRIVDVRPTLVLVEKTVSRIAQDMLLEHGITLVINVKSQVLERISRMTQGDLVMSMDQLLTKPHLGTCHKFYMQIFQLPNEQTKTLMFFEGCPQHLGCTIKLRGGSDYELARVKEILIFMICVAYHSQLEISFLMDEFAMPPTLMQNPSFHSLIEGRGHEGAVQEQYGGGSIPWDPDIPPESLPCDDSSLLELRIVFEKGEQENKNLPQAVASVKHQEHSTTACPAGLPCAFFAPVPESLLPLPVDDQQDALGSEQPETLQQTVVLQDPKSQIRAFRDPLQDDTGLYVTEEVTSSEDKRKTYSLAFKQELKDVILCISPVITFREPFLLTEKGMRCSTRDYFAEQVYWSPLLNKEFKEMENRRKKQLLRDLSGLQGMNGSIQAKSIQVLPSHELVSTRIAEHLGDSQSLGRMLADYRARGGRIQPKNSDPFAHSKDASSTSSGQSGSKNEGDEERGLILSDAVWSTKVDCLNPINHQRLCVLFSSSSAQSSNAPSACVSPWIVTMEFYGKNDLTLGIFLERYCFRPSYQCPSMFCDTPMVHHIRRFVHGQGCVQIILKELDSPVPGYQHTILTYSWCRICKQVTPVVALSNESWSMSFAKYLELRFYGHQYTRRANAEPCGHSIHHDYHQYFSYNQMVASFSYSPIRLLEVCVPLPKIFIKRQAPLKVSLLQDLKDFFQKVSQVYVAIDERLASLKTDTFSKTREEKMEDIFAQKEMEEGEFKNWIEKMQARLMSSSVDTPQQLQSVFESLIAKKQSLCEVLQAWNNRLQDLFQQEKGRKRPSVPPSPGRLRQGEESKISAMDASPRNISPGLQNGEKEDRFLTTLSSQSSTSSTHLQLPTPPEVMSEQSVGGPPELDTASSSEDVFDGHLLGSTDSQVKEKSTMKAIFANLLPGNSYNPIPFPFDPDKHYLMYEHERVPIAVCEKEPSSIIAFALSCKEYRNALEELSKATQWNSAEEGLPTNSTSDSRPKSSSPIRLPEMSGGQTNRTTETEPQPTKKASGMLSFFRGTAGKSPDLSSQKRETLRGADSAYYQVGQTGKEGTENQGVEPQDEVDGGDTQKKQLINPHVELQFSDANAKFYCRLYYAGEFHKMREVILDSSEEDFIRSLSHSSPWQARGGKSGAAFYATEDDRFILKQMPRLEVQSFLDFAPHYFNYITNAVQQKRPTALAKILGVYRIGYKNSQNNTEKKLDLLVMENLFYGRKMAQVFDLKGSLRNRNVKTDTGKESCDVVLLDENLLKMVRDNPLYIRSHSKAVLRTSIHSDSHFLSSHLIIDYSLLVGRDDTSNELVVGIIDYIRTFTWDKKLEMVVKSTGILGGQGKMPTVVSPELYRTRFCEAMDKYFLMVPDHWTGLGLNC

A word on the IC50: it is the midpoint of a concentration-inhibition curve. For orientation: EC50 means the concentration at which the effect is half-maximal. A low value points to an effect from little substance. As to `Cc1cccc(-c2ccn(-c3nc(N4CCOCC4)c4oc(C(=O)NCC5CC5)cc4n3)n2)c1` [Compound 97, N-(cyclopropylmethy 1)-4-morpholino-2-(3-(m-tolyl)-1H-pyrazol-1-yl)furo[3,2-d]pyrimidine-6-carboxamide], the IC50 in assay [1] came to 17 nM. The midpoint of the response in assay [2], the EC50, lay at 16.5 nM.
On to `Cc1cccc(-c2cnn(-c3nc(N4CCOCC4)c4oc(C(=O)NCCCS(C)(=O)=O)cc4n3)c2)c1` [Compound 119, N-(3-(methylsulfonyl)propyl)-4-morpholino-2-(4-(m-tolyl)-1H-pyrazol-1-yl)furo[3,2-d]pyrimidine-6-carboxamide], for which, in assay [1], the IC50 is 8.2 nM. In assay [2], this compound gave an EC50 of 96.5 nM.
For `Cc1cccc(-c2cnn(-c3nc(N4CCOCC4)c4oc(C(=O)NC5CCOCC5)cc4n3)c2)c1` [Compound 125, 4-morpholino-N-(tetrahydro-2H-pyran-4-yl)-2-(4-(m-tolyl)-1H-pyrazol-1-yl)furo[3,2-d]pyrimidine-6-carboxamide], in that order: 0.9 nM and 26 nM.
For `Cc1cccc(-c2ccn(-c3nc(N4CCOCC4)c4oc(-c5ccncc5)cc4n3)n2)c1` [Compound 89, 4-morpholino-6-(pyridin-4-yl)-2-(3-(m-tolyl)-1H-pyrazol-1-yl)furo[3,2-d]pyrimidine], in that order: 19 nM and 31.5 nM.
As for `Cc1cccc(-c2ccn(-c3nc(N4CCOCC4)c4oc(C(=O)NC5COC5)cc4n3)n2)c1` [Compound 104, 4-morpholino-N-(oxetan-3-yl)-2-(3-(m-tolyl)-1H-pyrazol-1-yl)furo[3,2-d]pyrimidine-6-carboxamide], the concentration for half-maximal inhibition (IC50) in assay [1] was determined as 41.2 nM. In assay [2], this compound had a half-maximal effective concentration (EC50) of 98 nM.
For `[2H]C1([2H])OC([2H])([2H])C([2H])([2H])N(c2nc(-n3cc(-c4cccc(C)c4)cn3)nc3cc(C(=O)NCC)oc23)C1([2H])[2H]` [Compound 131, N-ethyl-4-morpholino(dg)-2-(4-(m-tolyl)-1H-pyrazol-1-yl)furo[3,2-d]pyrimidine-6-carboxamide], in that order: 18 nM and 17 nM.
In the case of `COCCNC(=O)c1cc2nc(-n3cc(-c4cccc(C)c4)cn3)nc(N3CCOCC3)c2o1` [Compound 117, N-(2-methoxyethyl)-4-morpholino-2-(4-(m-tolyl)-1H-pyrazol-1-yl)fur[3,2-d]pyrimidine-6-carboxamide], the IC50 in assay [1] was 37.3 nM. In addition, the EC50 in assay [2] turned out to be 74.3 nM.
As to `Cc1cccc(-c2cnn(-c3nc(N4CCOCC4)c4oc(C(=O)NC5CCOC5)cc4n3)c2)c1` (stereo not shown) [Compound 126, 4-morpholino-N-(tetrahydrofuran-3-yl)-2-(4-(m-tolyl)-1H-pyrazol-1-yl)furo[3,2-d]pyrimidine-6-carboxamide], the IC50 in assay [1] is 2.9 nM. For the same compound, the half-maximal effective concentration (EC50) in assay [2] was 30.5 nM.
For `Cc1cccc(-c2cnn(-c3nc(N4CCOCC4)c4oc(-c5cc(C)n[nH]5)cc4n3)c2)c1` [Compound 144, 6-(3-methyl-1H-pyrazol-5-yl)-4-morpholino-2-(4-(m-tolyl)-1H-pyrazol-1-yl)furo[3,2-d]pyrimidine], in that order: 0.3 nM and 13 nM.
`Cc1cccc(-c2ccn(-c3nc(N4CCOCC4)c4oc(C(=O)NC5CC5)cc4n3)n2)c1` [Compound 96, N-cyclopropyl-4-morpholino-2-(3-(m-tolyl)-1H-pyrazol-1-yl)furo[3,2-d]pyrimidine-6-carboxamide]: the IC50 in assay [1] is 15 nM. The same compound came in with an EC50 in assay [2] of 17.5 nM.
`Cc1cccc(-c2cnn(-c3nc(N4CCOCC4)c4oc(C(=O)NCCCS(=O)(=O)N(C)C)cc4n3)c2)c1` [Compound 120, N-(3-(N,N-dimethylsulfamoyl)propyl)-4-morpholino-2-(4-(m-tolyl)-1H-pyrazol-1-yl)furo[3,2-d]pyrimidine-6-carboxamide]: the IC50 in assay [1] turned out to be 16.2 nM. Also, in assay [2], the EC50 amounted to 121 nM.
Regarding `Cc1cccc(-c2cnn(-c3nc(N4CCOCC4)c4oc(C(=O)NCCCN(C)C)cc4n3)c2)c1` [Compound 111, N-(3-(dimethylamino)propyl)-4-morpholino-2-(4-(m-tolyl)-1H-pyrazol-1-yl)furo[3,2-d]pyrimidine-6-carboxamide], in assay [1], the concentration for half-maximal inhibition (IC50) amounted to 3.1 nM. Besides, the EC50 in assay [2] worked out at 35.5 nM.
Turning to `Cc1cccc(-c2cnn(-c3nc(N4CCOCC4)c4oc(C(=O)NCC5CC5)cc4n3)c2)c1` [Compound 115, N-(cyclopropylmethyl)-4-morpholino-2-(4-(m-tolyl)-1H-pyrazol-1-yl)furo[3,2-d]pyrimidine-6-carboxamide], in assay [1], the IC50 was 3.1 nM. In assay [2], this compound yielded an EC50 of 35.7 nM.
On to `Cc1cccc(-c2cnn(-c3nc(N4CCOCC4)c4oc(-c5cc(C)n(CCN(C)C)n5)cc4n3)c2)c1` [Compound 146, N,N-dimethyl-2-(5-methyl-3-(4-morpholino-2-(4-(m-tolyl)-1H-pyrazol-1-yl)furo[3,2-d]pyrimidin-6-yl)-1H-pyrazol-1-yl)ethanamine], for which the IC50 in assay [1] was 0.3 nM. This compound also displayed a 50% effective concentration (EC50) in assay [2] of 11 nM.
For `Cc1cccc(-c2ccn(-c3nc(N4CCOCC4)c4oc(C(=O)NCC5COC5)cc4n3)n2)c1` [Compound 105, 4-morpholino-N-(oxetan-3-ylmethyl)-2-(3-(m-tolyl)-1H-pyrazol-1-yl)furo[3,2-d]pyrimidine-6-carboxamide], in that order: 32.3 nM and 100 nM.
For the compound `Cc1cccc(-c2cnn(-c3nc(N4CCOCC4)c4oc(C(=O)NC5CCN(C)CC5)cc4n3)c2)c1` [Compound 121, N-(1-methylpiperidin-4-yl)-4-morpholino-2-(4-(m-tolyl)-1H-pyrazol-1-yl)furo[3,2-d]pyrimidine-6-carboxamide], in assay [1], the IC50 came to 1.2 nM. This compound also gave an EC50 in assay [2] of 21.5 nM.
As to `c1ccc(-c2cc(Nc3nc(N4CCOCC4)c4oc(-c5ccncc5)cc4n3)no2)cc1` [Compound 43, 4-morpholino-N-(5-phenylisoxazol-3-yl)-6-(pyridin-4-yl)furo[3,2-d]pyrimidin-2-amine], the IC50 in assay [1] amounted to 8 nM. This compound also gave an EC50 in assay [2] of 47.5 nM.
Consider `COCCNC(=O)c1cc2nc(-n3ccc(-c4cccc(C)c4)n3)nc(N3CCOCC3)c2o1` [Compound 93, N-(2-methoxyethyl)-4-morpholino-2-(3-(m-tolyl)-1H-pyrazol-1-yl)furo[3,2-d]pyrimidine-6-carboxamide], for which, in assay [1], the IC50 is 47.3 nM. The concentration for a half-maximal effect (EC50) in assay [2] is 60 nM.
As for `Cc1cccc(-c2ccn(-c3nc(N4CCOCC4)c4oc(C(=O)NCCCCN(C)C)cc4n3)n2)c1` [Compound 108, N-(4-(dimethylamino)butyl)-4-morpholino-2-(3-(m-tolyl)-1H-pyrazol-1-yl)furo[3,2-d]pyrimidine-6-carboxamide], the IC50 in assay [1] was found to be 23.3 nM. In assay [2], this compound gave a concentration giving a half-maximal response (EC50) of 53 nM.
As to `Cc1cccc(-c2ccn(-c3nc(N4CCOCC4)c4oc(-c5cccnc5)cc4n3)n2)c1` [Compound 90], the IC50 in assay [1] worked out at 7.7 nM. In assay [2], this compound had an EC50 of 20.5 nM.
Regarding `Cc1cccc(-c2cnn(-c3nc(N4CCOCC4)c4oc(-c5cc(C)nn5CCN(C)C)cc4n3)c2)c1` [Compound 145, N,N-dimethyl-2-[3-methyl-5-[4-morpholino-2-[4-(m-tolyl)pyrazol-1-yl]furo[3,2-d]pyrimidin-6-yl]pyrazol-1-yl]ethanamine], the IC50 in assay [1] was determined as 18.6 nM. In assay [2], this compound had an EC50 of 27 nM.
For the compound `CCNC(=O)c1cc2nc(-n3ccc(-c4cccc(C)c4)n3)nc(N3CCOCC3)c2o1` [Compound 95, N-ethyl-4-morpholino-2-(3-(m-tolyl)-1H-pyrazol-1-yl)furo[3,2-d]pyrimidine-6-carboxamide], in assay [1], the IC50 amounted to 11.8 nM. The half-maximal effective concentration (EC50) in assay [2] was determined as 94 nM.
As to `[2H]C1([2H])OC([2H])([2H])C([2H])([2H])N(c2nc(-n3cc(-c4cccc(C)c4)cn3)nc3cc(-c4cccnc4)oc23)C1([2H])[2H]` [Compound 132, 4-morpholino (dg)-6-(pyridin-3-yl)-2-(4-(m-tolyl)-1H-pyrazol-1-yl)furo[3,2-d]pyrimidine], the IC50 in assay [1] was 39.9 nM. Besides, it took 15 nM to reach a half-maximal effect in assay [2] (EC50).
